# According to patent publication US9125898B2, “Acetam derivatives for pain relief” (NEUROTUNE AG, priority 2008, dated 2015):
# Entries after “also recorded” stand apart in the source; their conditions may differ.
# Assays:
# Assay type in all cases: in vivo
# [1] = test system: chronic constriction injury induced hyperalgesia in the rat; assay: Chronic constriction injury induced hyperalgesia in the rat (paw-pressure test); details: for Paw pressure, pre-test before all treatments: baseline, drug 100 mg/kg p.o.; for Paw pressure, 5 day 30 min / Paw pressure, 10 day 30 min / Paw pressure, 14 day 30 min / Paw pressure, 14 day 4 h / Paw pressure, 14 day 8 h / Paw pressure, 15 day 24 h / Paw pressure, 18 day 3 days: 100 mg/kg p.o. once a day for 14 days
# Method: In the repeated administration protocol, NT-13317 was orally administered at 100 mg/kg in 1% CMC once a day for 14 days starting from the day of sciatic nerve ligation.
# Peripheral rat mononeuropathy (Chronic constriction injury): Neuropathy was induced according to the procedure described by Bennett and Xie (Bennett G J, Xie Y K. A peripheral mononeuropathy in rat that produces disorders of pain sensation like those seen in man. Pain 1988; 33: 87-107).
# Briefly, rats were anaesthetized with chloral hydrate 400 mg/kg intraperitoneally (i.p.); under aseptic conditions, the right common sciatic nerve was exposed at the level of the middle thigh by blunt dissection. Proximal to the trifurcation, the nerve was carefully freed from the surrounding connective tissue and four chromic cat gut ligatures (4-0, Ethicon, Norderstedt, Germany) were tied loosely around it with about 1 mm spacing. After haemostasis was confirmed, the incision was closed in layers. Then animals were allowed to recover from anaesthesia and surgery and were kept one per cage with free access to water and standard laboratory chow.
# (§1) Statistical analysis: All experimental results are given as the mean±S.E.M. An analysis of variance, ANOVA, followed by Fisher's protected least significant difference procedure for post hoc comparison, were used to verify significance between two means of behavioural results. Data were analyzed with the StatView software for the Macintosh (1992). P values≦0.05 were considered significant.
# Data of mechanical threshold (PWT) were converted to a percentage of the maximal possible effect (% MPE), according to Veneroni, O. et al. as follows: %MPE=(left dose PWT−left pre-dose control PWT)/(left naïve PWT−left pre-dose PWT)*100
# The obtained % MPE were employed for ED50 calculation (obtained by Grafit v. 5.0), defined as the dose producing 50% reversal of mechanical allodynia.
# [2] = test system: oxaliplatin induced hyperalgesia in the rat; assay: Oxaliplatin induced hyperalgesia in the rat paw-pressure test; details: for Paw pressure, pre-test before all treatments: baseline, drug 100 mg/kg p.o.; for Paw pressure, 1a week - 30 min / Paw pressure, 2a week - 30 min / Paw pressure, 3a week - 30 min / Paw pressure, 3a week - 4 h / Paw pressure, 3a week - 8 h / Paw pressure, 3a week - 24 h: drug 100 mg/kg p.o. once daily
# Method: Drugs: The following substance was used: NT-13317 (batch No. RR0011-184A1 supplied by Brane Discovery Srl, Gerenzano Italy). NT-13317 was dissolved in DMSO 20%, 10% glucose and administered at the dose of 10, 30 and 100 mg/kg p.o.
# Gabapentin (Sigma) was dissolved in 1% CMC (carboxymethylcellulose-Sigma) and orally administered at 100 mg/kg, and dissolved in saline and i.v. administered at 3 mg/kg.
# Oxaliplatin model: A peripheral neuropathy was induced in adult rats, by administration of oxaliplatin (Tocris), at 2.4 mg/kg i.p. in saline once a day on days 1, 2, 3, 4, 5, 8, 9, 10, 11, 12, 15, 16, 17, 18, 19 (cumulative dose 36 mg/kg) according to [1].
# In the first experiment NT-13317 and gabapentin were given chronically at the dose 100 mg/kg po starting 3 days before oxaliplatin and every day for 5 days/week for 3 weeks.
# A dose-response experiment was then performed with NT-13317 (10, 30 and 100 mg/kg po) using the same treatment schedule.
# Paw pressure test: Paw mechanical sensitivity was determined using a Randall & Selitto apparatus exerting a force that increases at constant rate (32 g/s). The stimulus at which rats withdrawn the paw was evaluated before and at different times after treatment. Results represent the mean of mechanical thresholds expressed as grams. To avoid any possible damage to the animal paw the maximum applied force was fixed at 240 g.
# as §1, with “behavioral” for “behavioural”
# [3] = test system: MIA induced hyperalgesia in the rat; assay: MIA induced hyperalgesia in the rat (paw-pressure test); details: for Mechanical threshold, before treatment, first day basal: baseline
# Excerpt: Peripheral neuropathic induced in rats by administration into the left knee joint of MIA mimics chronic pain condition of osteoarthritis found in a large part of population over 60 years. The MIA test represents an useful and predictive model to study the anti-hyperalgesic potential of a drug in human osteoarthritic condition.
# Drugs: The following substances were used: NT-11624 (batch n 66-MM3/16 supplied by Brane Discovery Sri, Gerenzano Italy) and tramadol (Tocris, UK). […] Control rats received saline only.
# Sodium monoiodoacetate injection: A single intra-articular injection of sodium iodoacetate (MIA) was introduced into the right knee joint. […] Briefly, rats were deeply anaesthetized by ethylic ether. Following abolition of the hindpaw pinch withdrawal reflex, a 27-gauge needle was introduced into the joint cavity between the tibial plateau and femoral condyles. Once in place, 2 mg of MIA were solubilized in a volume of 25 ul and injected into the joint and the animal was allowed to recover for 14 days prior to pain assessment. It has consistently been shown that this dose of MIA causes osteoarthritic-like focal lesions in articular cartilage and subchondral bone thickening 14 days after administration Guingamp C. et al. Arthritis Rheum 40, 1670-9 (1997). Therefore this model can easily and quickly reproduce osteoarthritic-like lesions and functional impairment in rats, similar to that observed in human disease.
# The administration of MIA induces in rats a hyperalgesic response to mechanical stimuli that reaches its statistical significance 5 days after administration and persists for 4 weeks (Fernihough et al. Pain 112:83-93 (2004)).
# Control rats were treated with an equal volume of saline. […]
# Starting from day 17 after MIA injection, paw pressure tests were performed.
# Mechanical hyperalgesia: Paw mechanical sensitivity was determined using a Randall & Selitto apparatus exerting a force that increases at constant rate (32 g/s). The stimulus at which rats withdrawn the paw was evaluated before treatment (First day basal) and at the end of the treatment as following: before last treatment (pre-dose), and after last treatment (15, 30, 45, 60 min, 24, 48 and 72 h).
# Results represent the mean of mechanical thresholds expressed as grams. To avoid any possible damage to the animal paw the maximum applied force was fixed at 240 g.
# [4] = MIA rats, 14 days b.i.d. p.o. (NT-11624 150 mg/kg, tramadol 40 mg/kg)
# [5] = MIA rats, single p.o. administration on saline b.i.d. (NT-11624 150 mg/kg, tramadol 40 mg/kg)
smiles,measurement,setting,value
"Cc1ccc(N2C(=O)CN3C(=O)CCC32)cc1 (stereo not shown) [NT-13317, 1-p-tolyl-tetrahydropyrrolo[1,2a]imidazole-2,5-dione]","Paw pressure, pre-test before all treatments",[1]; CCI group,60.7 ± 2.7 g
same,"Paw pressure, 5 day 30 min",[1]; CCI,41.6 ± 4.2 g
same,"Paw pressure, 10 day 30 min",[1]; CCI,51.9 ± 5.2 g
same,"Paw pressure, 14 day 30 min",[1]; CCI,53.4 ± 5.5 g
same,"Paw pressure, 14 day 4 h",[1]; CCI,52.9 ± 5.2 g
same,"Paw pressure, 14 day 8 h",[1]; CCI,51.6 ± 4.4 g
same,"Paw pressure, 15 day 24 h",[1]; CCI,47.8 ± 4.7 g
same,"Paw pressure, 18 day 3 days",[1]; CCI,43.6 ± 5.1 g
same,"Paw pressure, pre-test before all treatments",[1]; SHAM group,62.3 ± 3.5 g
same,"Paw pressure, 5 day 30 min",[1]; SHAM,57.7 ± 4.3 g
same,"Paw pressure, 10 day 30 min",[1]; SHAM,55.8 ± 5.0 g
same,"Paw pressure, 14 day 30 min",[1]; SHAM,59.2 ± 3.9 g
same,"Paw pressure, 14 day 4 h",[1]; SHAM,57.2 ± 4.4 g
same,"Paw pressure, 14 day 8 h",[1]; SHAM,63.2 ± 6.0 g
same,"Paw pressure, 15 day 24 h",[1]; SHAM,61.6 ± 5.2 g
same,"Paw pressure, 18 day 3 days",[1]; SHAM,60.7 ± 6.2 g
same,Activity relative to gabapentin,[1]; i.c.v. single administration,ten times more active than gabapentin
same,Effect on paw pressure test after the last administration (in words),[1]; p.o. 100 mg/kg once a day for 14 days from the day of sciatic nerve ligation,significant effect on paw pressure test up to 24 hr
same,"Dose-response experiment, 100 mg/kg",[2]; 100 mg/kg p.o.,confirmed the results of the first experiment
same,Effect 4 h after administration at the end of the third week,[2]; 100 mg/kg p.o.,retained maximal efficacy; also recorded: still a beneficial effect
same,Effect 8 hr after administration at the end of the third week,[2]; 100 mg/kg p.o.,not any more significant
same,Reduction of mechanical hyperalgesia over three weeks of treatment (in words),"[2]; 100 mg/kg p.o. once daily, 5 days/week for 3 weeks",statistically significant reduction of mechanical hyperalgesia; also recorded: maximal at the end of week 3
same,"Dose-response experiment, lower doses",[2]; 10 and 30 mg/kg p.o.,inactive
same,"Paw pressure, pre-test before all treatments",[2]; oxaliplatin i.p. group,58.9 ± 3.7 g
same,"Paw pressure, 1a week - 30 min",[2]; oxaliplatin i.p.,68.7 ± 5.2 g
same,"Paw pressure, 2a week - 30 min",[2]; oxaliplatin i.p.,74.3 ± 6.1 g
same,"Paw pressure, 3a week - 30 min",[2]; oxaliplatin i.p.,79.2 ± 6.3 g
same,"Paw pressure, 3a week - 4 h",[2]; oxaliplatin i.p.,74.3 ± 4.3 g
same,"Paw pressure, 3a week - 8 h",[2]; oxaliplatin i.p.,53.5 ± 6.3 g
same,"Paw pressure, 3a week - 24 h",[2]; oxaliplatin i.p.,40.6 ± 5.0 g
same,"Paw pressure, pre-test before all treatments",[2]; vehicle i.p. (no oxaliplatin) group,60.6 ± 3.9 g
same,"Paw pressure, 1a week - 30 min",[2]; vehicle i.p. (no oxaliplatin),63.0 ± 4.3 g
same,"Paw pressure, 2a week - 30 min",[2]; vehicle i.p. (no oxaliplatin),66.1 ± 4.5 g
same,"Paw pressure, 3a week - 30 min",[2]; vehicle i.p. (no oxaliplatin),74.8 ± 5.4 g
same,"Paw pressure, 3a week - 4 h",[2]; vehicle i.p. (no oxaliplatin),73.8 ± 4.4 g
same,"Paw pressure, 3a week - 8 h",[2]; vehicle i.p. (no oxaliplatin),68.5 ± 3.7 g
same,"Paw pressure, 3a week - 24 h",[2]; vehicle i.p. (no oxaliplatin),69.9 ± 4.6 g
"COc1cccc(C2(O)CCCCC2CN(C)C)c1 (stereo not shown) [TRAMADOL, tramadol, reference compound]","Mechanical threshold, after last treatment 15 min",[3]; [4],38.8 ± 2.2 g
same,"Mechanical threshold, after last treatment 30 min",[3]; [4],36.4 ± 2.9 g
same,"Mechanical threshold, after last treatment 45 min",[3]; [4],32.8 ± 3.4 g
same,"Mechanical threshold, before treatment, first day basal","[3]; MIA rats, groups later treated 14 days b.i.d. p.o. (NT-11624 150 mg/kg, tramadol 40 mg/kg)",59.2 ± 3.1 g
same,"Mechanical threshold, before treatment, first day basal","[3]; MIA rats, single administration groups (saline 14 days b.i.d. first)",62.8 ± 3.0 g
same,"Mechanical threshold, before last treatment, pre-dose","[3]; MIA rats, single administration on saline b.i.d., before the single p.o. dose (NT-11624 150 mg/kg, tramadol 40 mg/kg)",25.5 ± 3.8 g
same,"Mechanical threshold, after last treatment 15 min",[3]; [5],39.2 ± 4.1 g
same,"Mechanical threshold, after last treatment 30 min",[3]; [5],43.4 ± 3.6 g
same,"Mechanical threshold, after last treatment 45 min",[3]; [5],36.2 ± 3.4 g
same,"Mechanical threshold, after last treatment 60 min","[3]; MIA rats, single p.o. administration on saline b.i.d., tramadol 40 mg/kg",27.2 ± 3.4 g
same,Effect of a single oral dose on mechanical threshold (in words),"[3]; single oral dose after saline b.i.d. for 14 days (NT-11624 150 mg/kg, tramadol 40 mg/kg)",significant anti-hyperalgesic effect from 15 to 60 min
same,Antihyperalgesic activity after the last treatment (in words),"[3]; treatment for 14 days b.i.d. p.o. (NT-11624 150 mg/kg, tramadol 40 mg/kg)",only a weak antihyperalgesic activity 15 and 30 min after the last treatment
